# Measurements from patent US9988627B2, “Formats for organic compounds for use in RNA interference” (NOVARTIS AG, priority 2013, dated 2018).
# Entries after “also recorded” stand apart in the source; their conditions may differ.
# Columns and labels:
# human APOC3 = test: 18-mer with internal spacer RNAi agents, residual mRNA in Huh7 at 15 nM; assay type: cell-based
# Text: In the various RNAi agents described in this example, a nucleotide at any of positions 1 to 18 was individually replaced by a spacer subunit, and RNA interference activity was retained. The 3′ end of each strand terminates in a phosphate or modified internucleoside linker and further comprises, in 5′ to 3′ order, a second spacer, a second phosphate or modified internucleotide linker, and a 3′ end cap.
# Similarly, U027, A027, G027 indicate that the nucleotides U, A or G, respectively, are absent and have been replaced by a spacer, which is ribitol. The target used in human APOC3. The numbers in columns 2 represent residual mRNA levels; thus, 5.8 in column 2, row 2, indicates residual mRNA level of 5.8% or 94.2% gene knockdown. SD, standard deviation.
# FVII (Factor VII) = test: RNA interference of 3′-capped mF7-III siRNAs against FVII (FIG. 2); assay type: cell-based, mouse; conditions: 19-mer blunt-ended mF7-III siRNA, A12S17
# Hepcidin (HAMP) mRNA = test: Hepcidin mRNA down regulation in HuH-7 cells by 18-mer HAMP siRNA-PAZ ligand conjugates; assay type: cell-based, Homo sapiens; conditions: format S402+ribitol+MOE clamp
# Text: Potency of 18-mer HAMP (Hepcidin) siRNA-PAZ Ligand Conjugates is studied.
# A variety of constructs were made using the same two sequences. […] A variety of 3′ end caps is also used.
# Hepcidin mRNA down regulation in HuH-7 cells is studied at 3 doses.
# Two test sequences used are hs_HAMP_400 and 402. “hs” indicates “Homo sapiens”. 400 is a sequence beginning at position 400 and 402 is an overlapping sequence […]
# Various other hs_HAMP 400 and 402 are depicted in FIG. 5A (Guide or antisense strand) and 5B (corresponding Sense strand).
# This Table indicates the Nickname (“Oligo Identifier”) for the 3′ end cap, and the DMT, Succinate and Carboxylate variants thereof; the Carboxylate Kd; the KD (knockdown) mediated by a Hepcidin RNAi agent comprising the 3′ end cap (format: S402+ribitol+MOE clamp) at 5 nM in vitro; and the approximate (approx.) IC50
# [1] = system: hepcidin (Hamp1) mRNA in liver; test: In vivo hepcidin knockdown in mouse liver (mRNA-qPCR), LNP569 Hamp254 18-mers; conditions: 1×3 mg/kg i.v., 48 h (day 2)
# Procedure: PBS: phosphate-buffered saline (negative control). This experiment was performed in vivo in the mouse. These were single 3 mg/kg dose i.v., and Hepcidin mRNA knockdown in liver was measured after 2 and 7 days.
# LNP569 is a lipid nanoparticle preparation of the RNAi agent.
# Two timepoints—48 and 168 hrs post-injection (both 3 mg/kg).
# Assess hepcidin knockdown in liver (mRNA-qPCR)
compound,measurement,setting,value
"1 (sense GACAGUAUUCUCAGUGCU; antisense AGCACUGAGAAUACUGU; chemical modifications, end caps, chemistry not fully specified) [compound 1]",% Res mRNA_Huh7_15 nM,human APOC3,5.8%
"3 (sense GACAGUAUUCUCAGUGCU; antisense AGCACUGAGAAUACUUC; chemical modifications, end caps, chemistry not fully specified) [compound 3]",% Res mRNA_Huh7_15 nM,human APOC3,11.3%
"4 (sense GACAGUAUUCUCAGUGCU; antisense AGCACUGAGAAUACGUC; chemical modifications, end caps, chemistry not fully specified) [compound 4]",% Res mRNA_Huh7_15 nM,human APOC3,9.5%
"5 (sense GACAGUAUUCUCAGUGCU; antisense AGCACUGAGAAUAUGUC; chemical modifications, end caps, chemistry not fully specified) [compound 5]",% Res mRNA_Huh7_15 nM,human APOC3,25.6%
"6 (sense GACAGUAUUCUCAGUGCU; antisense AGCACUGAGAAUCUGUC; chemical modifications, end caps, chemistry not fully specified) [compound 6]",% Res mRNA_Huh7_15 nM,human APOC3,33.1%
"7 (sense GACAGUAUUCUCAGUGCU; antisense AGCACUGAGAAACUGUC; chemical modifications, end caps, chemistry not fully specified) [compound 7]",% Res mRNA_Huh7_15 nM,human APOC3,22%
"8 (sense GACAGUAUUCUCAGUGCU; antisense AGCACUGAGAUACUGUC; chemical modifications, end caps, chemistry not fully specified) [compound 8]",% Res mRNA_Huh7_15 nM,human APOC3,23.8%
"9 (sense GACAGUAUUCUCAGUGCU; antisense AGCACUGAGAUACUGUC; siRNA; 2'-modified nucleotides, phosphates, 3' end caps, further chemistry not given here) [compound 9]",% Res mRNA_Huh7_15 nM,human APOC3,56.7%
"10 (sense GACAGUAUUCUCAGUGCU; antisense AGCACUGAAAUACUGUC; siRNA; modified with OMe, F, MOE, ribitol spacers, code 006 undefined, further chemistry not given here) [compound 10]",% Res mRNA_Huh7_15 nM,human APOC3,55%
"11 (sense GACAGUAUUCUCAGUGCU; antisense AGCACUGGAAUACUGUC; siRNA; modified with OMe, F, MOE, ribitol spacers, code 006 undefined, further chemistry not given here) [compound 11]",% Res mRNA_Huh7_15 nM,human APOC3,22.3%
"12 (sense GACAGUAUUCUCAGUGCU; antisense AGCACUAGAAUACUGUC; siRNA; modified with OMe, F, MOE, ribitol spacers, code 006 undefined, further chemistry not given here) [compound 12]",% Res mRNA_Huh7_15 nM,human APOC3,10.5%
"13 (sense GACAGUAUUCUCAGUGCU; antisense AGCACGAGAAUACUGUC; siRNA; modified with OMe, F, MOE, DNA, ribitol spacers, code 006 undefined, further chemistry not given here) [compound 13]",% Res mRNA_Huh7_15 nM,human APOC3,4.4%
"14 (sense GACAGUAUUCUCAGUGCU; antisense AGCAUGAGAAUACUGUC; siRNA; modified with OMe, F, MOE, ribitol spacers, code 006 undefined, further chemistry not given here) [compound 14]",% Res mRNA_Huh7_15 nM,human APOC3,3.2%
"15 (sense GACAGUAUUCUCAGUGCU; antisense AGCCUGAGAAUACUGUC; siRNA; modified with OMe, F, MOE, ribitol spacers, code 006 undefined, further chemistry not given here) [compound 15]",% Res mRNA_Huh7_15 nM,human APOC3,18.3%
"16 (sense GACAGUAUUCUCAGUGCU; antisense AGACUGAGAAUACUGUC; siRNA; modified with OMe, F, MOE, ribitol spacers, code 006 undefined, further chemistry not given here) [compound 16]",% Res mRNA_Huh7_15 nM,human APOC3,6.8%
"17 (sense GACAGUAUUCUCAGUGCU; antisense ACACUGAGAAUACUGUC; chemical modifications, end caps, chemistry not fully specified) [compound 17]",% Res mRNA_Huh7_15 nM,human APOC3,57.4%
"18 (sense GACAGUAUUCUCAGUGCU; antisense GCACUGAGAAUACUGUC; chemical modifications, end caps, chemistry not fully specified) [compound 18]",% Res mRNA_Huh7_15 nM,human APOC3,7.6%
"19 (sense GACAGUAUUCUCAGUGCU; antisense AGCACUGAGAAUACUGUC; chemical modifications, end caps, chemistry not fully specified) [compound 19]",% Res mRNA_Huh7_15 nM,human APOC3,6.3%
"20 (sense GACAGUAUUCUCAGUGCU; antisense AGCACUGAGAAUACUGUC; siRNA; chemical modifications, end caps, further chemistry not given here) [compound 20]",% Res mRNA_Huh7_15 nM,human APOC3,9.7%
"21 (sense GpGpApC004pApGpU004pApU004pU004pC004pU004pC004pApGpU004pGpC004pU004pU002pU002; antisense ApGpCpApCpU004pGpApGpApApU004pApCpU004pGpU004pCpCpU002pU002; chemical modifications, as printed in the source, key not given here) [compound 21]",% Res mRNA_Huh7_15 nM,human APOC3,6.5%
"C1C2CC3CC1CC(C2)C3 [Adamantane, adamantane]",ability to mediate RNA interference,FVII (Factor VII),allow the RNAi agent to perform RNA interference
"OCCCCCCO [C6, 1,6-hexane-diol]",Hepcidin KD at 5 nM in vitro (%),Hepcidin (HAMP) mRNA,66%
same,Hepcidin knockdown in vivo at 48 hours post-dose,[1],more efficacious than the 21-mer format; also recorded: able to mediate Hepcidin knockdown
same,ability to mediate RNA interference,FVII (Factor VII),allow the RNAi agent to perform RNA interference
"OCCOCCOCCO [Triethylene glycol, triethylene glycol]",ability to mediate RNA interference,FVII (Factor VII),allow the RNAi agent to perform RNA interference
"COc1ccc(C(OCc2cc(Br)cc(CO)c2)(c2ccccc2)c2ccc(OC)cc2)cc1 [compound 2, (3-((bis(4-methoxyphenyl)(phenyl)methoxy)methyl)-5-bromophenyl)methanol]",% Res mRNA_Huh7_15 nM,human APOC3,3.4%
